One may read the share remaining as what is left of the initial amount, in per cent. A lower share remaining goes with more turnover.

Square brackets hold non-standard residues; d marks the D form. Peptide text beside a SMILES is read from it.

The source of these data is paper PMC11323006, “Designing Coiled Coils for Heterochiral Complexation to Enhance Binding and Enzymatic Stability” (Biomacromolecules, 2024).

Series [1] deals with Proteinase K (Parengyodontium album, UniProt P06873). As to the kind of experiment: in vitro. The settings on record: Proteinase K 5 μg/mL. As to the method: (§1) Degradation was monitored by HPLC. Solutions of individual coiled coils were prepared at 200 μM in 1× PBS and pH corrected to 7.40 ± 0.05 using 1–15 μL of 1 M NaOH. A stock solution of Proteinase K enzyme was prepared at 0.5 mg/mL. For each pair of peptides, 1.5 mL of each 200 μM solution was mixed, then 30 μL of 0.5 mg/mL Proteinase K was added to the 3 mL total mixed solution to obtain a final concentration of 5 μg/mL Proteinase K. Each degradation solution was stirred at 250 rpm for the duration of the experiment. For each time point, a 1 mL aliquot of degradation solution was added to an HPLC vial, a 100 μL injection was performed on HPLC, and the remaining 900 μL was returned to the bulk degradation solution. To normalize for slight shifts in elution time due to changing solvent or environmental conditions, a MATLAB script (included in SI) was used to align all K4^7 (for heptad degradation) or K3^11 (for hendecad degradation) peaks to the same elution time as the elution at t = 0 h.
(§2) Solutions of K4^7 and E4^7 (200 μM in 1× PBS at pH 7.4) were blended as homochiral (L-K4^7/L-E4^7) or heterochiral (D-K4^7/L-E4^7) mixtures. These blends were then incubated with 5 μg/mL Proteinase K, an enzyme known for its broad-spectrum activity and expected to cleave after the I, A, L, and E residues of these peptides.[40] Immediately after adding Proteinase K, as well as after 1, 3, 6, 12, and 24 h incubations, we used high performance liquid chromatography (HPLC) to monitor the degradation of the coiled coils.
(§3) We incubated solutions of homochiral (L-K3^11/L-E3^11) or heterochiral (D-K3^11/L-E3^11) hendecad coiled coils with 5 μg/mL Proteinase K as we did for the heptad coiled coils (200 μM each in 1× PBS at pH 7.4).

Series [2] concerns Proteinase K. Put plainly: in vitro. The settings on record: isolated enzyme proteinase k. How it is done: as §1, §2, §3
The conditions of series [3]: cited from earlier work. The text has this: For example, 1:1 heterochir ...
The mark [4] stands for this setting: pH 7.4, percent intact by peak area (Normalized Area).

Chain of Proteinase K (Parengyodontium album, UniProt P06873) (P06873 106-384): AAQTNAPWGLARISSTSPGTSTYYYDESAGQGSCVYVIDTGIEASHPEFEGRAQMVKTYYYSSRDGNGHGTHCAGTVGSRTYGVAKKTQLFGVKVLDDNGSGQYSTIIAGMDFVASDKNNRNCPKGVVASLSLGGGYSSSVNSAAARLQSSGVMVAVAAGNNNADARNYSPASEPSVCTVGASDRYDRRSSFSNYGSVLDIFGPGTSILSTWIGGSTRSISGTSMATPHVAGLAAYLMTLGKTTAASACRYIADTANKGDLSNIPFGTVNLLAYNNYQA

Take `CC[C@@H](C)[C@@H](NC(=O)[C@H](N)CCCCN)C(=O)N[C@H](C)C(=O)N[C@H](C)C(=O)N[C@H](CC(C)C)C(=O)N[C@H](CCCCN)C(=O)N[C@H](CCC(=O)O)C(=O)N[C@H](CCCCN)C(=O)N[C@@H](C(=O)N[C@H](C)C(=O)N[C@H](C)C(=O)N[C@H](CCCCN)C(=O)N[C@@H](C(=O)N[C@H](C)C(=O)N[C@H](C)C(=O)N[C@H](CC(C)C)C(=O)N[C@H](CCCCN)C(=O)N[C@H](CCC(=O)O)C(=O)N[C@H](CCCCN)C(=O)N[C@@H](C(=O)N[C@H](C)C(=O)N[C@H](C)C(=O)N[C@H](CCCCN)C(=O)N[C@@H](C(=O)N[C@H](C)C(=O)N[C@H](C)C(=O)N[C@H](CC(C)C)C(=O)N[C@H](CCCCN)C(=O)N[C@H](CCC(=O)O)C(=O)N[C@H](CCCCN)C(=O)N[C@@H](C(=O)N[C@H](C)C(=O)N[C@H](C)C(N)=O)[C@H](C)CC)[C@H](C)CC)[C@H](C)CC)[C@H](C)CC)[C@H](C)CC` [D-K3^11] (H-[dK][dI][dA][dA][dL][dK][dE][dK][dI][dA][dA][dK][dI][dA][dA][dL][dK][dE][dK][dI][dA][dA][dK][dI][dA][dA][dL][dK][dE][dK][dI][dA][dA]-NH2): the “stability in the heterochiral complex (in words)” value on Proteinase K [1] (heterochiral blend D-K3^11:L-E3^11, 1× PBS pH 7.4, HPLC, 30 h incubation) is “remains largely stable”.

Turning to `CC[C@@H](C)[C@@H](NC(=O)[C@H](N)CCCCN)C(=O)N[C@H](C)C(=O)N[C@H](C)C(=O)N[C@H](CC(C)C)C(=O)N[C@H](CCCCN)C(=O)N[C@H](CCC(=O)O)C(=O)N[C@H](CCCCN)C(=O)N[C@@H](C(=O)N[C@H](C)C(=O)N[C@H](C)C(=O)N[C@H](CC(C)C)C(=O)N[C@H](CCCCN)C(=O)N[C@H](CCC(=O)O)C(=O)N[C@H](CCCCN)C(=O)N[C@@H](C(=O)N[C@H](C)C(=O)N[C@H](C)C(=O)N[C@H](CC(C)C)C(=O)N[C@H](CCCCN)C(=O)N[C@H](CCC(=O)O)C(=O)N[C@H](CCCCN)C(=O)N[C@@H](C(=O)N[C@H](C)C(=O)N[C@H](C)C(=O)N[C@H](CC(C)C)C(=O)N[C@H](CCCCN)C(=O)N[C@H](CCC(=O)O)C(N)=O)[C@H](C)CC)[C@H](C)CC)[C@H](C)CC` [D-K4^7] (H-[dK][dI][dA][dA][dL][dK][dE][dK][dI][dA][dA][dL][dK][dE][dK][dI][dA][dA][dL][dK][dE][dK][dI][dA][dA][dL][dK][dE]-NH2), the “degradation in the heterochiral blend (in words)” value at Proteinase K [1] (heterochiral blend D-K4^7:L-E4^7, 1× PBS pH 7.4, HPLC, up to 24 h) is “little to no degradation”. Moreover, in the series with Proteinase K [2] (setting [4]), the share remaining at 1 h, 100 μM amounted to 97% and the share remaining at 3 h, 100 μM was 97%.

For the compound `CC[C@H](C)[C@H](NC(=O)[C@H](CCC(=O)O)NC(=O)[C@H](C)NC(=O)[C@H](C)NC(=O)[C@@H](NC(=O)[C@H](CCC(=O)O)NC(=O)[C@H](CCCCN)NC(=O)[C@H](CCC(=O)O)NC(=O)[C@H](CC(C)C)NC(=O)[C@H](C)NC(=O)[C@H](C)NC(=O)[C@@H](NC(=O)[C@H](CCC(=O)O)NC(=O)[C@H](C)NC(=O)[C@H](C)NC(=O)[C@@H](NC(=O)[C@H](CCC(=O)O)NC(=O)[C@H](CCCCN)NC(=O)[C@H](CCC(=O)O)NC(=O)[C@H](CC(C)C)NC(=O)[C@H](C)NC(=O)[C@H](C)NC(=O)[C@@H](NC(=O)[C@@H](N)CCC(=O)O)[C@@H](C)CC)[C@@H](C)CC)[C@@H](C)CC)[C@@H](C)CC)C(=O)N[C@@H](C)C(=O)N[C@@H](C)C(=O)N[C@@H](CC(C)C)C(=O)N[C@@H](CCC(=O)O)C(=O)N[C@@H](CCCCN)C(=O)N[C@@H](CCC(=O)O)C(=O)N[C@H](C(=O)N[C@@H](C)C(=O)N[C@@H](C)C(N)=O)[C@@H](C)CC` [L-E3^11] (H-EIAALEKEIAAEIAALEKEIAAEIAALEKEIAA-NH2), in the series on Proteinase K [2] (setting [4]), the amount remaining at 3 h, 100 μM is 7%; the fraction remaining at 6 h, 100 μM was 0%; the amount remaining at 12 h, 100 μM turned out to be 0%. Moreover, the share remaining at 168 h, 100 μM in the series with Proteinase K [2] (pH 7.4, percent of the peptide remaining) was 23%.

With `CC[C@H](C)[C@H](NC(=O)[C@H](CCC(=O)O)NC(=O)[C@H](CCCCN)NC(=O)[C@H](CCC(=O)O)NC(=O)[C@H](CC(C)C)NC(=O)[C@H](C)NC(=O)[C@H](C)NC(=O)[C@@H](NC(=O)[C@H](CCC(=O)O)NC(=O)[C@H](CCCCN)NC(=O)[C@H](CCC(=O)O)NC(=O)[C@H](CC(C)C)NC(=O)[C@H](C)NC(=O)[C@H](C)NC(=O)[C@@H](NC(=O)[C@H](CCC(=O)O)NC(=O)[C@H](CCCCN)NC(=O)[C@H](CCC(=O)O)NC(=O)[C@H](CC(C)C)NC(=O)[C@H](C)NC(=O)[C@H](C)NC(=O)[C@@H](NC(=O)[C@@H](N)CCC(=O)O)[C@@H](C)CC)[C@@H](C)CC)[C@@H](C)CC)C(=O)N[C@@H](C)C(=O)N[C@@H](C)C(=O)N[C@@H](CC(C)C)C(=O)N[C@@H](CCC(=O)O)C(=O)N[C@@H](CCCCN)C(N)=O` [L-E4^7] (H-EIAALEKEIAALEKEIAALEKEIAALEK-NH2), on Proteinase K [1] (heterochiral blend D-K4^7:L-E4^7, 1× PBS pH 7.4, HPLC peak at 6.9 min), the “time within which the intact peak disappears completely” value is listed as not above 12 h. In the series with Proteinase K [2] (pH 7.4), this compound had an amount remaining at 3 h, 100 μM of 71%; a share remaining at 6 h, 100 μM of 12%; a share remaining at 12 h, 100 μM of 1%; an amount remaining at 24 h, 100 μM of 0%.

Consider `CC[C@H](C)[C@H](NC(=O)[C@H](CCCCN)NC(=O)[C@H](C)NC(=O)[C@H](C)NC(=O)[C@@H](NC(=O)[C@H](CCCCN)NC(=O)[C@H](CCC(=O)O)NC(=O)[C@H](CCCCN)NC(=O)[C@H](CC(C)C)NC(=O)[C@H](C)NC(=O)[C@H](C)NC(=O)[C@@H](NC(=O)[C@H](CCCCN)NC(=O)[C@H](C)NC(=O)[C@H](C)NC(=O)[C@@H](NC(=O)[C@H](CCCCN)NC(=O)[C@H](CCC(=O)O)NC(=O)[C@H](CCCCN)NC(=O)[C@H](CC(C)C)NC(=O)[C@H](C)NC(=O)[C@H](C)NC(=O)[C@@H](NC(=O)[C@@H](N)CCCCN)[C@@H](C)CC)[C@@H](C)CC)[C@@H](C)CC)[C@@H](C)CC)C(=O)N[C@@H](C)C(=O)N[C@@H](C)C(=O)N[C@@H](CC(C)C)C(=O)N[C@@H](CCCCN)C(=O)N[C@@H](CCC(=O)O)C(=O)N[C@@H](CCCCN)C(=O)N[C@H](C(=O)N[C@@H](C)C(=O)N[C@@H](C)C(N)=O)[C@@H](C)CC` [L-K3^11] (H-KIAALKEKIAAKIAALKEKIAAKIAALKEKIAA-NH2), for which the “time to complete degradation” value on Proteinase K [1] (homochiral blend L-K3^11:L-E3^11, 1× PBS pH 7.4, HPLC) is “under 6 h”. In the series on Proteinase K [2] (pH 7.4), this compound came in with a share remaining at 1 h, 100 μM of 77%; a share remaining at 3 h, 100 μM of 11%; a fraction remaining at 6 h, 100 μM of 0%; a share remaining at 12 h, 100 μM of 0%. The compound further registered a fraction remaining at 30 h, 100 μM with Proteinase K [2] (pH 7.4) of 0%.

In the series on Proteinase K [2] (setting [4]), `CC[C@H](C)[C@H](NC(=O)[C@H](CCCCN)NC(=O)[C@H](CCC(=O)O)NC(=O)[C@H](CCCCN)NC(=O)[C@H](CC(C)C)NC(=O)[C@H](C)NC(=O)[C@H](C)NC(=O)[C@@H](NC(=O)[C@H](CCCCN)NC(=O)[C@H](CCC(=O)O)NC(=O)[C@H](CCCCN)NC(=O)[C@H](CC(C)C)NC(=O)[C@H](C)NC(=O)[C@H](C)NC(=O)[C@@H](NC(=O)[C@H](CCCCN)NC(=O)[C@H](CCC(=O)O)NC(=O)[C@H](CCCCN)NC(=O)[C@H](CC(C)C)NC(=O)[C@H](C)NC(=O)[C@H](C)NC(=O)[C@@H](NC(=O)[C@@H](N)CCCCN)[C@@H](C)CC)[C@@H](C)CC)[C@@H](C)CC)C(=O)N[C@@H](C)C(=O)N[C@@H](C)C(=O)N[C@@H](CC(C)C)C(=O)N[C@@H](CCCCN)C(=O)N[C@@H](CCC(=O)O)C(N)=O` [L-K4^7] (H-KIAALKEKIAALKEKIAALKEKIAALKE-NH2) returned a fraction remaining at 3 h, 100 μM of 74% and a share remaining at 24 h, 100 μM of 0%.

For (PPG)10, the “solubility of heterochiral mixtures” value in series [3] (heterochiral mixtures of triple helices) was “precipitate”. Further, in series [3] (homochiral triple helices), the “solubility of homochiral triple helices” value is on record as “soluble”.
